In ChEMBL document CHEMBL1697723, “A predictive ligand-based Bayesian model for human drug-induced liver injury” (Drug Metab Dispos, 2010) one finds Hepatotoxicity data, which are given here for 21 compounds.

The subject of the first series is Hepatotoxicity. Nature of the series: Human drug-induced liver injury (DILI) modelling dataset from Ekins et al.
Details: not given
As to `CC(=O)S[C@@H]1CC2=CC(=O)CC[C@]2(C)[C@H]2CC[C@@]3(C)[C@@H](CC[C@@]34CCC(=O)O4)[C@H]12` [SPIRONOLACTONE], the Hepatotoxicity result is given as “DILI positive (training set)”.
On to `Cc1cn([C@H]2C=C[C@@H](CO)O2)c(=O)[nH]c1=O` [STAVUDINE], for which the Hepatotoxicity entry is on record as “DILI positive (training set)”.
Turning to `CN(N=O)C(=O)N[C@@H](C=O)[C@@H](O)[C@H](O)[C@H](O)CO` [STREPTOZOCIN], the Hepatotoxicity result was “DILI negative (test set)”.
`CN1C(C(=O)Nc2nccs2)=C(O)c2ccccc2S1(=O)=O` [SUDOXICAM]: the Hepatotoxicity result is given as “DILI positive (test set)”.
For the compound `Clc1ccc(CSC(Cn2ccnc2)c2ccc(Cl)cc2Cl)cc1.O=[N+]([O-])O` (stereo unspecified) [SULCONAZOLE NITRATE], the Hepatotoxicity result is given as “DILI negative (test set)”.
Take `Nc1ccc(S(=O)(=O)NC(=O)c2ccccc2)cc1` [SULFABENZAMIDE]: the Hepatotoxicity entry is “DILI negative (test set)”.
On the same count and under the same terms, the entry for `Cc1nnc(NS(=O)(=O)c2ccc(N)cc2)s1` [SULFAMETHIZOLE] is “DILI positive (test set)”.
On to `O=C(O)c1cc(/N=N/c2ccc(S(=O)(=O)Nc3ccccn3)cc2)ccc1O` [SULFASALAZINE], for which the Hepatotoxicity entry is listed as “DILI positive (training set)”.
As to `O=C1C(CC[S+]([O-])c2ccccc2)C(=O)N(c2ccccc2)N1c1ccccc1` (stereo unspecified) [SULFINPYRAZONE], the Hepatotoxicity entry is recorded as “DILI positive (test set)”.
Same read-out and setting: next, `O=C1OC(c2ccc(O)c(S(=O)(=O)O)c2)(c2ccc(O)c(S(=O)(=O)O)c2)c2c(Br)c(Br)c(Br)c(Br)c21` [SULFOBROMOPHTHALEIN]: “DILI positive (test set)”.
The same measure, in the same setting: next, `Cc1nc(C)c2c(n1)N(Cc1ccc(-c3ccccc3-c3nnn[nH]3)cc1)C(=O)CC2` [TASOSARTAN]: “DILI positive (test set)”.
`Cc1scc2c1N(C(=O)CN1CCN(C)CC1)c1ccccc1NC2=O` [TELENZEPINE]: the Hepatotoxicity entry was “DILI negative (test set)”.
Consider `CC1CN(c2cc3c(cc2F)c(=O)c(C(=O)O)cn3-c2ccc(F)cc2F)CCN1` (stereo unspecified) [TEMAFLOXACIN], for which the Hepatotoxicity entry is recorded as “DILI positive (test set)”.
For the compound `Cn1nnc2c(C(N)=O)ncn2c1=O` [TEMOZOLOMIDE], the Hepatotoxicity result was “DILI negative (training set)”.
As for `CC(C)(C)c1ccc(C(O)CCCN2CCC(C(O)(c3ccccc3)c3ccccc3)CC2)cc1` (stereo unspecified) [TERFENADINE], the Hepatotoxicity entry is “DILI negative (training set)”.
The same measure, in the same setting: next, `CCCCNc1ccc(C(=O)OCCN(C)C)cc1.Cl` [TETRACAINE HYDROCHLORIDE]: “DILI negative (training set)”.

The series is the same for the next values; noted with them: Liver.
Turning to `CN[C@@H]1[C@H](O[C@H]2[C@H](O[C@H]3[C@H](O)[C@@H](O)[C@H](N=C(N)N)[C@@H](O)[C@@H]3N=C(N)N)O[C@@H](C)[C@]2(O)C=O)O[C@@H](CO)[C@H](O)[C@H]1O.CN[C@@H]1[C@H](O[C@H]2[C@H](O[C@H]3[C@H](O)[C@@H](O)[C@H](N=C(N)N)[C@@H](O)[C@@H]3N=C(N)N)O[C@@H](C)[C@]2(O)C=O)O[C@@H](CO)[C@H](O)[C@H]1O.O=S(=O)(O)O.O=S(=O)(O)O.O=S(=O)(O)O` [STREPTOMYCIN SULFATE], the Hepatotoxicity result is “DILI negative (training set)”.
In the case of `[H]/N=C(/N)N[C@H]1[C@H](O)[C@@H](O)[C@H](O[C@@H]2O[C@@H](C)[C@](O)(C=O)[C@H]2O[C@@H]2O[C@@H](CO)[C@H](O)[C@@H](O)[C@@H]2NC)[C@@H](N/C(N)=N\[H])[C@@H]1O` [STREPTOMYCIN], the Hepatotoxicity entry is recorded as “DILI negative (test set)”.
The same measure, in the same setting: the entry for `Nc1ccc(S(N)(=O)=O)cc1` [SULFANILAMIDE] is “DILI positive (test set)”; for `Nc1c2c(nc3ccccc13)CCCC2` [TACRINE] it is “DILI negative (training set)”.
Take `CC[C@H]1OC(=O)[C@H](C)C(=O)[C@H](C)[C@@H](O[C@@H]2O[C@H](C)C[C@H](N(C)C)[C@H]2O)[C@](C)(OC)C[C@@H](C)C(=O)[C@H](C)[C@H]2N(CCCCn3cnc(-c4cccnc4)c3)C(=O)O[C@]12C` [TELITHROMYCIN]: the Hepatotoxicity entry was “DILI positive (test set)”.
